What was measured:
[1] = xn = mol fraction of the nth substance listed
[2] = for surface tension liquid-gas: Drop volume; for mass density: 101.33 kPa, Liquid

C1CCOCC1 [tetrahydropyran] + ClC1CCCCC1
[1], Drop volume, x2 = 0
Details | surface tension liquid-gas [mN/m]
298.15 K | 27.29
313.15 K | 25.46

C1CCOC1 [tetrahydrofuran] + BrC1CCCCC1
[1], Drop volume, x2 = 0
Details | surface tension liquid-gas [mN/m]
298.15 K | 27.12
313.15 K | 25.24

BrC1CCCCC1 [bromocyclohexane] + CC1CCC(C)O1
[1], x1 = 1
Details | surface tension liquid-gas [mN/m]
298.15 K | 33.63
313.15 K | 32.98

BrC1CCCCC1 [bromocyclohexane]
[2]
Details | mass density [kg/m3] | surface tension liquid-gas [mN/m]
298.15 K | 1328.41 | 33.63
313.15 K | – | 32.98

C1CCOCC1 [tetrahydropyran] + BrC1CCCCC1
[1], Drop volume, x2 = 0
Details | surface tension liquid-gas [mN/m]
298.15 K | 27.29
313.15 K | 25.46

CC1CCC(C)O1 (stereo not drawn) [2,5-dimethyltetrahydrofuran] + BrC1CCCCC1
surface tension liquid-gas [mN/m], [1]
Details | 298.15 K | 313.15 K
x2 = 0 | 22.93 | 21.5
x2 = 0.0692 | 23.3 | 21.71
x2 = 0.0908 | 23.42 | 21.83
x2 = 0.1916 | 24.03 | 22.52
x2 = 0.2942 | 24.54 | 23.16
x2 = 0.3981 | 24.9 | 23.73
x2 = 0.4712 | 25.17 | 24.06
x2 = 0.5994 | 25.96 | 24.84
x2 = 0.6382 | 26.39 | 25.15
x2 = 0.701 | – | 25.74
x2 = 0.8032 | 29.16 | –
x2 = 0.8035 | – | 27.31
x2 = 0.8552 | 30.35 | –
x2 = 0.8558 | – | 28.4
x2 = 0.8996 | 31.47 | –
x2 = 0.9378 | 32.34 | 30.81

CC1CCC(C)O1 (stereo not drawn) [2,5-dimethyltetrahydrofuran] + ClC1CCCCC1
surface tension liquid-gas [mN/m], [1], Drop volume
Details | 298.15 K | 313.15 K
x2 = 0 | 22.93 | 21.5
x2 = 0.054 | – | 21.87
x2 = 0.0582 | 23.29 | –
x2 = 0.0998 | – | 22.15
x2 = 0.1048 | 23.51 | –
x2 = 0.1988 | 24 | –
x2 = 0.202 | – | 22.76
x2 = 0.3031 | 24.46 | –
x2 = 0.3037 | – | 23.3
x2 = 0.4025 | 24.96 | –
x2 = 0.4049 | – | 23.78
x2 = 0.5047 | 25.45 | –
x2 = 0.509 | – | 24.29
x2 = 0.6055 | – | 24.87
x2 = 0.6071 | 25.99 | –
x2 = 0.7039 | – | 25.58
x2 = 0.7088 | 26.75 | –
x2 = 0.8075 | – | 26.61
x2 = 0.8097 | 27.83 | –
x2 = 0.9009 | 29.1 | –
x2 = 0.9065 | – | 27.94
x2 = 0.9479 | – | 28.54
x2 = 0.9482 | 29.98 | –

C1CCOCC1 [tetrahydropyran]
[2]
Details | mass density [kg/m3] | surface tension liquid-gas [mN/m]
298.15 K | 878.82 | 27.29
313.15 K | – | 25.46

ClC1CCCCC1 [chlorocyclohexane] + C1CCOCC1
surface tension liquid-gas [mN/m], [1], Drop volume
Details | 298.15 K | 313.15 K
x1 = 0.044 | – | 25.64
x1 = 0.0446 | 27.44 | –
x1 = 0.085 | 27.58 | –
x1 = 0.0854 | – | 25.82
x1 = 0.1668 | – | 26.17
x1 = 0.1673 | 27.88 | –
x1 = 0.2584 | 28.23 | –
x1 = 0.259 | – | 26.55
x1 = 0.3519 | 28.62 | –
x1 = 0.3527 | – | 26.94
x1 = 0.4499 | – | 27.33
x1 = 0.4501 | 29.01 | –
x1 = 0.5511 | 29.41 | –
x1 = 0.5923 | – | 27.91
x1 = 0.6578 | – | 28.17
x1 = 0.658 | 29.82 | –
x1 = 0.7676 | 30.24 | –
x1 = 0.7693 | – | 28.6
x1 = 0.8744 | 30.62 | –
x1 = 0.8809 | – | 29.02
x1 = 0.9385 | – | 29.22
x1 = 0.9393 | 30.84 | –
x1 = 1 | 31.05 | 29.44

BrC1CCCCC1 [bromocyclohexane] + CC1CCCO1
surface tension liquid-gas [mN/m], [1], Drop volume
Details | 298.15 K | 313.15 K
x1 = 0.042 | 24.87 | 23.36
x1 = 0.0933 | 25.28 | 23.78
x1 = 0.1942 | 26.13 | 24.63
x1 = 0.2908 | 26.95 | 25.48
x1 = 0.3921 | 27.82 | 26.38
x1 = 0.5072 | 28.82 | 27.43
x1 = 0.5896 | 29.55 | 28.19
x1 = 0.6994 | 30.58 | 29.24
x1 = 0.8173 | 31.75 | 30.49
x1 = 0.9043 | 32.65 | 31.55
x1 = 0.9247 | 32.86 | 31.85
x1 = 1 | 33.63 | 32.98

CC1CCCO1 (stereo not drawn) [2-methyltetrahydrofuran]
[2]
Details | mass density [kg/m3] | surface tension liquid-gas [mN/m]
298.15 K | 849.4 | 24.56
313.15 K | – | 23.02

BrC1CCCCC1 [bromocyclohexane] + C1CCOC1
surface tension liquid-gas [mN/m], [1], Drop volume
Details | 298.15 K | 313.15 K
x1 = 0.0528 | 27.39 | 25.66
x1 = 0.0909 | 27.62 | 25.94
x1 = 0.1919 | 28.31 | 26.67
x1 = 0.2954 | 29.06 | 27.39
x1 = 0.3997 | 29.82 | 28.12
x1 = 0.5057 | 30.56 | 28.88
x1 = 0.611 | 31.24 | 29.65
x1 = 0.7127 | 31.89 | 30.42
x1 = 0.8064 | – | 31.18
x1 = 0.8232 | 32.56 | –
x1 = 0.8937 | 32.98 | –
x1 = 0.8994 | – | 32
x1 = 0.9467 | 33.31 | 32.44
x1 = 1 | 33.63 | 32.98

CC1CCC(C)O1 (stereo not drawn) [2,5-dimethyltetrahydrofuran]
[2]
Details | mass density [kg/m3] | surface tension liquid-gas [mN/m]
298.15 K | 825.25 | 22.93
313.15 K | – | 21.5

ClC1CCCCC1 [chlorocyclohexane]
[2]
Details | mass density [kg/m3] | surface tension liquid-gas [mN/m]
298.15 K | 993.17 | 31.05
313.15 K | – | 29.44

BrC1CCCCC1 [bromocyclohexane] + C1CCOCC1
surface tension liquid-gas [mN/m], [1], Drop volume
Details | 298.15 K | 313.15 K
x1 = 0.0539 | 27.62 | 25.95
x1 = 0.098 | 27.89 | 26.32
x1 = 0.1908 | 28.45 | 27.01
x1 = 0.296 | 29.11 | 27.7
x1 = 0.3969 | 29.75 | 28.35
x1 = 0.4993 | 30.43 | 28.98
x1 = 0.6178 | 31.23 | 29.74
x1 = 0.712 | 31.86 | 30.43
x1 = 0.8067 | 32.49 | 31.23
x1 = 0.8816 | 32.95 | 31.88
x1 = 0.9568 | 33.39 | 32.57
x1 = 1 | 33.63 | 32.98

ClC1CCCCC1 [chlorocyclohexane] + CC1CCC(C)O1
[1], Drop volume, x1 = 1
Details | surface tension liquid-gas [mN/m]
298.15 K | 31.05
313.15 K | 29.44

ClC1CCCCC1 [chlorocyclohexane] + C1CCOC1
surface tension liquid-gas [mN/m], [1], Drop volume
Details | 298.15 K | 313.15 K
x1 = 0.0361 | – | 25.39
x1 = 0.0362 | 27.27 | –
x1 = 0.0727 | – | 25.56
x1 = 0.0728 | 27.43 | –
x1 = 0.1434 | – | 25.88
x1 = 0.1442 | 27.73 | –
x1 = 0.2257 | – | 26.25
x1 = 0.2258 | 28.07 | –
x1 = 0.3114 | 28.43 | 26.66
x1 = 0.4061 | 28.82 | 27.09
x1 = 0.5071 | – | 27.52
x1 = 0.5093 | 29.25 | –
x1 = 0.6163 | 29.68 | –
x1 = 0.6173 | – | 27.96
x1 = 0.7351 | – | 28.42
x1 = 0.7359 | 30.11 | –
x1 = 0.8582 | – | 28.89
x1 = 0.8602 | 30.54 | –
x1 = 0.9267 | 30.77 | –
x1 = 0.9291 | – | 29.16
x1 = 1 | 31.05 | 29.44

C1CCOC1 [tetrahydrofuran]
[2]
Details | mass density [kg/m3] | surface tension liquid-gas [mN/m]
298.15 K | 882.1 | 27.12
313.15 K | – | 25.24

CC1CCCO1 (stereo not drawn) [2-methyltetrahydrofuran] + BrC1CCCCC1
[1], Drop volume, x2 = 0
Details | surface tension liquid-gas [mN/m]
298.15 K | 24.56
313.15 K | 23.02

CC1CCCO1 (stereo not drawn) [2-methyltetrahydrofuran] + ClC1CCCCC1
[1], Drop volume, x2 = 0
Details | surface tension liquid-gas [mN/m]
298.15 K | 24.56
313.15 K | 23.02

C1CCOC1 [tetrahydrofuran] + ClC1CCCCC1
[1], Drop volume, x2 = 0
Details | surface tension liquid-gas [mN/m]
298.15 K | 27.12
313.15 K | 25.24

ClC1CCCCC1 [chlorocyclohexane] + CC1CCCO1
surface tension liquid-gas [mN/m], [1], Drop volume
Details | 298.15 K | 313.15 K
x1 = 0.0434 | – | 23.23
x1 = 0.0471 | 24.85 | –
x1 = 0.0868 | – | 23.44
x1 = 0.0884 | 25.11 | –
x1 = 0.1719 | – | 23.93
x1 = 0.1722 | 25.63 | –
x1 = 0.2652 | 26.2 | –
x1 = 0.2653 | – | 24.47
x1 = 0.3536 | – | 25
x1 = 0.3605 | 26.81 | –
x1 = 0.4587 | 27.44 | –
x1 = 0.4591 | – | 25.65
x1 = 0.5615 | 28.15 | –
x1 = 0.5618 | – | 26.31
x1 = 0.6654 | 28.86 | –
x1 = 0.6677 | – | 27.03
x1 = 0.7734 | – | 27.78
x1 = 0.7761 | 29.62 | –
x1 = 0.8805 | – | 28.58
x1 = 0.8856 | 30.34 | –
x1 = 0.9404 | – | 29
x1 = 0.9418 | 30.7 | –
x1 = 1 | 31.05 | 29.44

Source: the NIST ThermoML archive (doi:10.1021/je0500577)
